The values below come from ChEMBL document CHEMBL5543153, “Discovery of a Potent Dual Son of Sevenless 1 (SOS1) and Epidermal Growth Factor Receptor (EGFR) Inhibitor for the Treatment of Prostate Cancer” (J Med Chem, 2024).

The test system of one data set is DLD-1. As to the kind of experiment: Antiproliferative activity against human DLD-1 cells assessed as inhibition of cell growth incubated for 72 hrs by MTT assay. The data set is classed as functional, cell-based.
The next data set has as its system HepG2. As to the kind of experiment: Antiproliferative activity against human HepG2 cells assessed as inhibition of cell growth incubated for 72 hrs by MTT assay. The data set is classed as functional, cell-based.
Data set [1] has as its system PC-3. As to the kind of experiment: cells. Format: functional, cell-based. The note with it: Homo sapiens, PC-3, 72 h.
Description: Antiproliferative activity against human PC-3 cells assessed as inhibition of cell growth incubated for 72 hrs by MTT assay
The test system of the next data set is SK-LU-1. The experiment in a line: Antiproliferative activity against human SK-LU-1 cells harboring KRAS G12D mutant assessed as inhibition of cell growth incubated for 72 hrs by MTT assay. Format: functional, cell-based. The following applies: SK-LU-1, 72 h.
For data set [2], the system named is PC-3. As to the kind of experiment: Antiproliferative activity against human PC-3 cells transfected with SOS1 and EGFR shRNA assessed as inhibition of cell growth incubated for 72 hrs by MTT assay. The data set is classed as functional, cell-based. The following applies: PC-3, 72 h.
For data set [3], the target named is T1, Son of sevenless homolog 1 (Homo sapiens) (UniProt Q07889).
T1 sequence (whole entry): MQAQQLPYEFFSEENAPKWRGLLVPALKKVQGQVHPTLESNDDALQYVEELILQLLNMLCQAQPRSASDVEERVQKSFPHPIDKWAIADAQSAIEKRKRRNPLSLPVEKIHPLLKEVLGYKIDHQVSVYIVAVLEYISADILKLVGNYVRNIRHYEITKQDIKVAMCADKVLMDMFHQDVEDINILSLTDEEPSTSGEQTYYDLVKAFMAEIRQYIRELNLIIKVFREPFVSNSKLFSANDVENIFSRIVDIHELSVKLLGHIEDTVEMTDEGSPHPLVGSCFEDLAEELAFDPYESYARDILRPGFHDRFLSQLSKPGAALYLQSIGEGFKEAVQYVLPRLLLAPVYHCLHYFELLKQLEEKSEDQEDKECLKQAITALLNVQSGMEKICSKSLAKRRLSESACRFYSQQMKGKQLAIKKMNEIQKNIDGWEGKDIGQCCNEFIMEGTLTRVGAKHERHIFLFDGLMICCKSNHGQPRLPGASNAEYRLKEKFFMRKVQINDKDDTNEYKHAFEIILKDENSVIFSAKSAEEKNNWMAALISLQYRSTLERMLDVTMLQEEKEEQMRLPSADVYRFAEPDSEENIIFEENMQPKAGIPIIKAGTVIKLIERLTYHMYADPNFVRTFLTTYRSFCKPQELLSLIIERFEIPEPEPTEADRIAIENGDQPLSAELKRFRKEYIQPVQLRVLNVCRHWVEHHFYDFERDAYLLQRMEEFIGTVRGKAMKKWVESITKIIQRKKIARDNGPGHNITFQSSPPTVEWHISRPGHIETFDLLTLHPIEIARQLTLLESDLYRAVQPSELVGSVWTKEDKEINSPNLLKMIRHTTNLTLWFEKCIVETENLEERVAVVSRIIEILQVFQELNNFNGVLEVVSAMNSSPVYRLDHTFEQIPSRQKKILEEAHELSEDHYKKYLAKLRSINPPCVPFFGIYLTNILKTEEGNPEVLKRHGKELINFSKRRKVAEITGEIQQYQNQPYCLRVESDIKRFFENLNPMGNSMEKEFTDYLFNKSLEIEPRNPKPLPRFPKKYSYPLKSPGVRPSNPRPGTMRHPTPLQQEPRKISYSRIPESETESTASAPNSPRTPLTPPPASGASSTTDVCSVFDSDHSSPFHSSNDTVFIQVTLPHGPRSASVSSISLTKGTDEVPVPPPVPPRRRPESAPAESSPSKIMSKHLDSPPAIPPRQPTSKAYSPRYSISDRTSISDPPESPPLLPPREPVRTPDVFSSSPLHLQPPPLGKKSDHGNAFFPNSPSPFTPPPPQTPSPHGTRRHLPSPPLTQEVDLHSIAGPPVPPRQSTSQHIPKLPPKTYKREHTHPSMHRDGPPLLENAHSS
As to the kind of experiment: Inhibition of SOS1 in human PC-3 cells assessed as downregulation of RAS-GTP expression at 0.5 uM incubated for 15 mins by Western blotting analysis. The data set is classed as cell-based. On the technique in general: In western blotting, separated proteins are transferred to a membrane and probed.

Data set [4] has as its target T1, Son of sevenless homolog 1 (Homo sapiens). As to the kind of experiment: Inhibition of SOS1 in human PC-3 cells assessed as downregulation of AKT phosphorylation at 0.5 uM incubated for 15 mins by Western blotting analysis. Format: cell-based.
Data set [5] has the same target. As to the kind of experiment: Inhibition of SOS1 in human PC-3 cells assessed as downregulation of AKT phosphorylation at 12.5 uM incubated for 15 mins by Western blotting analysis. Format: cell-based.
In data set [6] the test system is PC-3. As to the kind of experiment: Induction of apoptosis in human PC-3 cells assessed as early apoptotic cells at 2.5 uM by Annexin V-FITC staining based flow cytometry (reference value: 2.64%). Format: functional. In general terms: Flow cytometry measures light scatter and fluorescence of single cells or particles in a stream.
In data set [7] the test system is PC-3. The experiment in a line: Induction of apoptosis in human PC-3 cells assessed as upregulation of cleaved PARP expression by Western blotting analysis. The data set is classed as functional, cell-based.
In data set [8] the test system is PC-3. As to the kind of experiment: Induction of cell cycle arrest in human PC-3 cells assessed as accumulation of cells at S phase at 2.5 uM by PI staining based flow cytometry (reference value: 16.58%). The data set is classed as functional.
For data set [9], the system named is PC-3. The experiment in a line: Induction of cell cycle arrest in human PC-3 cells assessed as accumulation of cells at S phase at 12.5 uM by PI staining based flow cytometry (reference value: 16.58%). The data set is classed as functional.
The test system of data set [10] is HUVEC. As to the kind of experiment: Antiangiogenic activity in HUVEC cells assessed as reduction in tube formation at 0.5 to 12.5 uM incubated for 8 hrs by matrigel based microscopic analysis. Format: functional, cell-based. The note with it: Homo sapiens, dose 0.5-12.5 µM.
For data set [11], the system named is HUVEC. As to the kind of experiment: Antiangiogenic activity in HUVEC cells assessed as reduction in tube length at 0.5 to 12.5 uM incubated for 8 hrs by matrigel based microscopic analysis. The following applies: Homo sapiens, dose 0.5-12.5 µM. The data set is classed as functional, cell-based.
Data set [12] deals with HUVEC. The experiment in a line: Antiangiogenic activity in HUVEC cells assessed as reduction of meshes at 0.5 to 12.5 uM incubated for 8 hrs by matrigel based microscopic analysis. The following applies: Homo sapiens, dose 0.5-12.5 µM. Format: functional, cell-based.
Data set [13] concerns HUVEC. The experiment in a line: Inhibition of cell migration in HUVEC cells assessed as reduction in migration index measured after 48 hrs by wound healing assay. The data set is classed as functional, cell-based. The note with it: Homo sapiens.
A short description of data set [14]: Toxicity in BALB/c mouse xenografted with human PC-3 cells assessed as heart pathological change at 20 mg/kg,ip administrated once every 4 days for 24 days by hematoxylin and eosin staining based analysis. The data set is classed as organism-based. The note with it: in vivo, 576 h, time 24 day.
The nature of data set [15]: Toxicity in BALB/c mouse xenografted with human PC-3 cells assessed as lung pathological change at 5 mg/kg,ip administrated once every 4 days for 24 days by hematoxylin and eosin staining based analysis. The data set is classed as organism-based. The following applies: in vivo, 576 h, time 24 day. In general terms: In xenograft studies the graft and the host belong to different species.

Data set [16] can be described thus: Toxicity in BALB/c mouse xenografted with human PC-3 cells assessed as kidney pathological change at 20 mg/kg,ip administrated once every 4 days for 24 days by hematoxylin and eosin staining based analysis. Format: organism-based. The note with it: in vivo, 576 h, time 24 day.
Data set [17] is described as follows: Toxicity in BALB/c mouse xenografted with human PC-3 cells assessed as change in AST level at 5 mg/kg,ip administrated once every 4 days for 24 days by automatic biochemical analyzer. The following applies: in vivo, 576 h, time 24 day. Format: organism-based.
Data set [18] is described as follows: Toxicity in BALB/c mouse xenografted with human PC-3 cells assessed as change in AST level at 20 mg/kg,ip administrated once every 4 days for 24 days by automatic biochemical analyzer. The data set is classed as organism-based. The following applies: in vivo, 576 h, time 24 day.
Data set [19] in a line: Toxicity in BALB/c mouse xenografted with human PC-3 cells assessed as change in blood urea nitrogen level at 5 mg/kg,ip administrated once every 4 days for 24 days by automatic biochemical analyzer. The data set is classed as organism-based. The note with it: in vivo, 576 h, time 24 day.

SMILES strings stand for the structures. The source made the active and inactive calls. No cut-off for these calls is given here.

As to `COc1cc2ncnc(N[C@H](C)c3cccc(F)c3)c2cc1OC1CCOCC1`, the result in the data set on DLD-1, with HepG2, with HUVEC [10], with HUVEC [11] and in the data set on HUVEC [12] was Active. For the same molecule, the half-inhibitory concentration (IC50) (commonly the midpoint of a concentration-inhibition curve) was 450 nM in the data set on PC-3 [1], 550 nM in the data set with SK-LU-1 and more than 10000 nM in the data set with PC-3 [2]. The inhibition entry in data set [3], in data set [4] and in data set [5] was “Active” in each case. The Activity was 17% in the data set with PC-3 [6]; “Dose-Dependent Effect” with PC-3 [7]; 5.5% in the data set on PC-3 [8]; 6.67% with PC-3 [9]; “Toxic” in data set [14]; “Toxic” in data set [15]. For the same molecule, the Activity result in [16] was “Toxic”; in data set [17], “Non-Toxic”; in [18], “Non-Toxic”; in data set [19], “Non-Toxic”. Further, the inhibition entry in the data set with HUVEC [13] was “Dose-Dependent Effect”.
